Measured values as given in patent publication US20240238305A1, “FORMULATIONS OF 3-((3-(4-(2-(ISOBUTYLSULFONYL)PHENOXY)-3-(TRIFLUOROMETHYL)PHENYL)-1,2,4-OXADIAZOL-5-YL)METHYL)-5,5-DIMETHYL-1-(2-MORPHOLINOETHYL)IMIDAZOLIDINE-2,4-DIONE” (Novartis AG, priority 2021, published 2024).

Legend:
SCD1 = assay: Measurement of SCD1 expression in SZ95-SCD1-HiBit cells (HiBiT assay); format: cell-based, human
Experimental: SCD1 expression levels in SZ95 cells were quantitated using the HiBiT system (Promega) in which a small peptide sequence (SmBiT) with a larger protein (LgBiT) reconstitutes luciferase activity and can generate a luminescent signal used for quantitation. […] The gRNA targeting sequence used was […] (SEQ ID NO: 3) and the SCD1 insertion oligonucleotide encoding the SmBiT sequence was:
SZ95-SCD1-HiBit cells were seeded in 384-well cell culture white plates at a density of 3000 cells/[…]. Water was added to edge wells to avoid evaporation. Cells were incubated in a humidified incubator with 5% CO2 at 37° C. overnight. Tested compounds were diluted at a ratio of 1:3 in DMSO using an Agilent BRAVO Automated Liquid Handling Platform and, after further serial dilutions, added to cells at final concentrations starting from 18 μM. 2-(3-(3-((2-chloro-3-(trifluoromethyl)benzyl)(2,2-diphenylethyl)amino)propoxy)phenyl)acetic acid was used as a reference compound in each plate. Cells in the assay plate were incubated in a humidified incubator with 5% CO2 at 37° C. for 48h.
The assay plates were removed from the incubator and allowed to equilibrate to room temperature. […] Plates were placed on an orbital shaker at a speed of 300-600 rpm for 10 min at room temperature, and read on an EnVision Plate Reader using luminescence detection with a 1 second read time. […]

SZ95 sebocytes = assay: Sentinel Lipid Assay (SLA), global desaturation index; format: cell-based, human
Experimental: The sentinel lipid assay was used quantify the change in the global desaturation index in SZ95 sebocytes upon administration of Compound 1. The assay measures a smaller subset of lipid analytes in meibum (termed “sentinel lipids”) which would model the global changes the population of both saturated and desaturated lipids in the cells. In order to define this smaller subset of lipids, a complete lipid profile was recorded on dose response curves (eight levels from 4 nM to 10 uM) of Compound 1. […]
A medium throughput assay was created using this reduced set of sentinel lipids. […] Lipids were extracted from the cells using a 1:1 mixture of methylene chloride/methanol containing 10 nM of deuterated standards of triglycerides, which are used as internal standards for quantitating the lipid abundance. […] The abundance of the sentinel lipids and the internal standards are measured using multiple reaction monitor mode (MRM) on a triple quadrupole mass spectrometer. […] In order to compare compounds from multiple batches with one another, the measure raw desaturation index was normalized by dividing it by the desaturation index of the DMSO dosed cells, and all data was assessed as the fraction by which the compound increases the desaturation index above 1. […]

[1] = normalized to reference compound Amax of 100%

Structure (SMILES): O=C(O)Cc1cccc(OCCCN(Cc2cccc(C(F)(F)F)c2Cl)CC(c2ccccc2)c2ccccc2)c1 [Reference, 2-(3-(3-((2-chloro-3-(trifluoromethyl)benzyl)(2,2-diphenylethyl)amino)propoxy)phenyl)acetic acid]
- HiBit Amax (SCD1; SZ95-SCD1-HiBit cells, 48h, compared to reference compound): 95.1
- HiBit Normalized Amax (SCD1; [1]): 100.0%
- SLA Amax (SZ95 sebocytes; SZ95 cells, 72h, compared to reference compound): 96.0
- SLA Normalized Amax (SZ95 sebocytes; [1]): 100.0%
